According to US10363257B2 (ZENITH EPIGENETICS LTD., priority 2013, dated 2019):

How the values were obtained:
human AML MV-4-11 cells = experiment: Inhibition of cell proliferation in MV4-11 cells (CellTiter Aqueous One); type: cell-based; details: MV4-11, 72 h
Outline: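 Exponentially growing MV-4-11 cells (5×10^4/well) were treated immediately with two-fold dilutions of compound from 30 μM to 0.2 μM, in triplicate, for 72 h at 37° C, 5% CO2. Viability was measured by MTS absorbance at 490 nm after 3–4 h. Proliferation relative to DMSO after blank correction gave IC50.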

c-myc = experiment: Inhibition of c-myc expression (mRNA, real-time PCR) in MV4-11 cells; type: cell-based; details: Human AML MV4-11 cells, 3 h, cMYC mRNA
Outline: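 MV4-11 cells treated 3 h at 37° C with increasing compound concentrations or 0.1% DMSO, in triplicate. cMYC mRNA quantified by one-step TaqMan real-time PCR, Ct normalized to internal control (Cyclophilin primers used), fold expression relative to control.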

[1] = In vivo efficacy in experimental autoimmune encephalomyelitis (EAE) model of MS; design: species or system mouse; details: EAE mice (MOG35-55/CFA, female C57Bl/6), 50 to 125 mg/kg b.i.d. from time of immunization
Source text: Experimental autoimmune encephalomyelitis (EAE) is a T-cell-mediated autoimmune disease of the CNS which shares many clinical and histopathological features with human multiple sclerosis (MS). EAE is the most commonly used animal model of MS. […] Cytokines IL-23, IL-6 and IL-17, which are either critical for Th1 and Th17 differentiation or produced by these T cells, play a critical and non-redundant role in EAE development. Therefore, drugs targeting production of these cytokines are likely to have therapeutic potential in treatment of MS.
Compounds of Formula I or la were administered at 50 to 125 mg/kg b.i.d. from time of immunization to EAE mice to assess anti-inflammatory activity. In this model, EAE is induced by MOG35-55/CFA immunization and pertussis toxin injection in female C57BI/6 mice.

hIL-6 mRNA = experiment: Inhibition of hIL-6 mRNA transcription in LPS-stimulated U937 cells; type: cell-based; details: Homo sapiens, U-937; PMA-differentiated U937 cells, 1 h pretreatment, 1 ug/mL LPS stimulation, 3 h; read-out: IL-6 activity (Inhibition of hIL-6 mRNA Transcription)
Outline: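 U937 cells differentiated 3 days with 60 ng/mL PMA, pretreated 1 h with compound (0.1% DMSO), then stimulated with 1 ug/mL E. coli LPS for 3 h at 37 °C. hIL-6 mRNA measured by one-step TaqMan RT-qPCR, normalized to cyclophilin. Fold expression relative to control; triplicate wells.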

hApoA-1 mRNA = experiment: Up-regulation of hApoA-1 mRNA transcription in Huh7 cells; type: cell-based, human; details: EC170, Huh7 cells, 48 h treatment, ApoA-I mRNA
Protocol: In this example, ApoA-I mRNA in tissue culture cells was quantitated to measure the transcriptional up-regulation of ApoA-I when treated with a compound of the invention.
Huh7 cells (2.5×10^5 per well) were plated in a 96-well plate using 100 μL DMEM per well, (Gibco DMEM supplemented with penicillin/streptomycin and 10% FBS), 24 h before the addition of the compound of interest. After 48 h treatment, the spent media was removed from the Huh-7 cells and placed on ice (for immediate use) or at −80° C. (for future use) with the “LDH cytotoxicity assay Kit II” from Abcam. The cells remaining in the plate were rinsed with 100 μL PBS.
Then 85 μL of cell lysis solution was added to each well and incubated for 5-10 min at room temperature, to allow for complete cell lysis and detachment. mRNA was then prepared using the “mRNA Catcher PLUS plate” from Life Technologies, according to the protocol supplied. After the last wash, as much wash buffer as possible was aspirated without allowing the wells to dry. […]
The eluted mRNA isolated was then used in a one-step real-time PCR reaction, using components of the Ultra Sense Kit together with Life Technologies primer-probe mixes. Real-time PCR data was analyzed, using the Ct values, to determine the fold induction of each unknown sample, relative to the control (that is, relative to the control for each independent DMSO concentration).

IC50 (human AML MV-4-11 cells): ≤ 300 nM
IC50 (c-myc): 300 to 3000 nM
IC50 (hIL-6 mRNA): ≤ 300 nM
Structure (SMILES): Cc1noc(C)c1-c1cc(N)c2ncn(Cc3ccccc3)c2c1 [Example Compound 7, 1-Benzyl-6-(3,5-dimethylisoxazol-4-yl)-1H-benzo[d]imidazol-4-amine]
In vivo activity [1]: Active
ApoA-1 activity (hApoA-1 mRNA): +++ (EC170 value less than or equal to 0.3 μM were deemed to be highly active (+++))
